Format in all cases: in vivo
Assay [1] has as its system larvae of brown planthopper (Nilaparvata lugens Stahl). Description: Test Example 1: insecticidal activity against larvae of brown planthopper. As to conditions: 120 h, third-instar larvae, 25° C., 5 days after treatment. Here is the method: Insecticidal activity against larvae of brown planthopper (Nilaparvata lugens Stahl).
Testing method: Five rice seedlings of the 1.5 leaf age were dipped in a test composition of 400 ppm concentration for 30 seconds. After air-drying, the seedlings were placed in a glass tube containing 1 ml of water and infested with five third-instar larvae of brown planthopper. The glass tube was left standing in a constant temperature cabinet at 25° C. and 5 or 7 days after the treatment, dead-and-survival was observed. Mortality was calculated from the results of 3-replication test.

In assay [2] the test system is two-spotted spider mite (Tetranychus urticae Koch). Description: Test Example 3: activity to two-spotted spider mite. As to conditions: 120 h, 1,000 ppm, 5 days after treatment. From the text:
Activity to two-spotted spider mite (Tetranychus urticae Koch).
Testing method: Two-spotted spider mites were set free on the pot-planted soybean in a greenhouse. On the next day, a test composition of 1,000 ppm concentration was sprayed over the soybean by means of a spray gun. Two days or five days after the treatment, dead-and-survival was inspected to calculate the mortality.

The subject of assay [3] is larvae of house mosquito (Culex pipiens pallens Coquillett). Description: Test Example 6: insecticidal activity to larvae of house mosquito. As to conditions: 120 h. Here is the method: Insecticidal activity to larvae of house mosquito (Culex pipiens pallens Coquillett).
Test method: In a 200-ml beaker, was placed together with a feed 100 ml of a test composition diluted with deionized water to 10 ppm concentration. The test composition was infested with 20 first-instar larvae of house mosquito and the beaker was covered with a sheet of Japanese paper. The beaker was kept in a constant temperature cabinet at 25° C. Five days after the treatment, the dead-and-survival was inspected to calculate the mortality.

In assay [4] the test system is larvae of green rice leafhopper (Nephotettix cincticeps Uhler). Description: Test Example 5: activity against larvae of green rice leafhopper. The following applies: 168 h, 400 ppm, second-instar larvae, 25° C., seven days after treatment, read-out: Mortality. On the procedure: Activity against larvae of green rice leafhopper (Nephotettix cincticeps Uhler).
Testing method: Five rice seedlings of the 1.5 leaf age were dipped in a test composition of 400 ppm concentration for 30 seconds. After air-drying, the seedlings were placed in a glass tube containing 1 ml of water and infested with five second-instar larvae of green rice leafhopper. The glass tube was left standing in a constant temperature cabinet at 25° C. Seven days after the treatment, dead-and-survivalwas inspected to calculate the mortality (3-replication test).

On to `Cc1ccc(N2CSC(=NC(C)C)N(Cc3ccccc3)C2=O)cc1` [Compound 320], for which the mortality – broadly, the percentage killed – at 400 ppm in assay [1] turned out to be 100%. Moreover, the mortality at 1000 ppm in assay [2] was 70%. The same compound yielded a mortality at 10 ppm in assay [3] of 70%.
Consider `CCC(C)N=C1SCN(c2cccc(C(F)(F)F)c2)C(=O)N1C(C)C` (stereo not drawn) [Compound 269], for which the mortality at 400 ppm in assay [1] is 80%. In assay [3], this compound yielded a mortality at 10 ppm of 100%.
As for `CCC(C)N=C1SCN(c2ccccc2)C(=O)N1CC` (stereo not drawn) [Compound 130], the mortality at 400 ppm in assay [4] is 100%.
In assay [3], `CCN=C1SCN(c2ccccc2)C(=O)N1CC` [Compound 125] yielded a mortality at 10 ppm of 80%.
Turning to `CCN1C(=O)N(c2ccc(F)cc2)CSC1=NC(C)(C)C` [Compound 280], in assay [1], the mortality at 400 ppm was 100%. The compound also gave a mortality at 1000 ppm in assay [2] of 80%. This compound also displayed a mortality at 10 ppm in assay [3] of 90%.
For the compound `CCN=C1SCN(c2c(C)cccc2C)C(=O)N1CC` [Compound 390], in assay [1], the mortality at 400 ppm amounted to 60%. Further, the mortality at 1000 ppm in assay [2] is 80%.
For the compound `Cc1ccccc1N1CSC(=NCc2ccccc2)N(Cc2ccccc2)C1=O` [Compound 308], the mortality at 400 ppm in assay [1] was 60%. This compound also gave a mortality at 1000 ppm in assay [2] of 100%. The same compound returned a mortality at 10 ppm in assay [3] of 100%.
For the compound `C=CCN1C(=O)N(c2ccccc2Cl)CSC1=NC(C)C` [Compound 242], the mortality at 400 ppm in assay [1] was found to be 100%. This compound also came in with a mortality at 1000 ppm in assay [2] of 70%.
In turn, `CCN1C(=O)N(c2ccc(C)cc2)CSC1=NC(C)(C)C` [Compound 312] came in with a mortality at 400 ppm in assay [1] of 100%. This compound showed a mortality at 1000 ppm in assay [2] of 100%. The mortality at 10 ppm in assay [3] was 100%.
Compound `CCN1C(=O)N(c2ccccc2C)CSC1=NC(C)(C)C` [Compound 299] returned a mortality at 400 ppm in assay [1] of 100%. Moreover, in assay [2], the mortality at 1000 ppm was determined as 100%.
In assay [1], `CCC(C)N1C(=O)N(c2ccc(C)cc2C)CSC1=NC(C)(C)C` (stereo not drawn) [Compound 380] yielded a mortality at 400 ppm of 100%. In assay [2], this compound registered a mortality at 1000 ppm of 100%.
Take `CC(C)N=C1SCN(c2cccc(C(F)(F)F)c2)C(=O)N1C(C)C` [Compound 265, 2-Isopropylimino-3-isopropyl-5-(m-trifluoromethylphenyl)-tetrahydro-1,3,5-thiadiazin-4-one]: the mortality at 10 ppm in assay [3] came to 100%.
Consider `Cc1ccc(N2CSC(=NC(C)(C)C)N(C(C)C)C2=O)c(C)c1` [Compound 379, 2-t-butylimino-3-isopropyl-5-(2,4-dimethylphenyl)-tetrahydro-1,3,5-thiadiazin-4-one], for which the mortality at 400 ppm in assay [1] was 100%. The mortality at 1000 ppm in assay [2] was found to be 100%.
The compound `CCCN1C(=O)N(c2ccc(C)cc2)CSC1=NC(C)(C)C` [Compound 317] showed a mortality at 400 ppm in assay [1] of 100%. This compound also showed a mortality at 1000 ppm in assay [2] of 100%. Also, in assay [3], the mortality at 10 ppm turned out to be 100%.
On to `COCCCN1C(=O)N(c2ccccc2Cl)CSC1=NC(C)(C)C` [Compound 258], for which, in assay [1], the mortality at 400 ppm came out at 100%. The compound also returned a mortality at 1000 ppm in assay [2] of 100%.
Compound `CC(C)N1C(=O)N(c2cc(Cl)cc(Cl)c2)CSC1=NC(C)(C)C` [Compound 407] showed a mortality at 400 ppm in assay [1] of 100%. This compound also showed a mortality at 1000 ppm in assay [2] of 100%.
As to `Cc1ccccc1N1CSC(=NC(C)C)N(C)C1=O` [Compound 297], the mortality at 400 ppm in assay [1] was 100%. This compound had a mortality at 1000 ppm in assay [2] of 100%.
For the compound `C=CCN=C1SCN(c2c(CC)cccc2CC)C(=O)N1CC=C` [Compound 394], the mortality at 400 ppm in assay [1] came out at 70%. In assay [2], this compound had a mortality at 1000 ppm of 80%.
The like results for `CC(C)N=C1SCN(c2cccc(Cl)c2)C(=O)N1C1CCCC1` [Compound 233] were, in that order, 100% and 100%.
For `CC(C)N1C(=O)N(c2ccc(Cl)c(Cl)c2)CSC1=NC1CCCCC1` [Compound 425] the same measures were 60% and 100%.
The compound `CCc1ccccc1N1CSC(=NC(C)C)N(C(C)C)C1=O` [Compound 337] registered a mortality at 400 ppm in assay [1] of 100%. Further, the mortality at 1000 ppm in assay [2] is 100%.
For `CC(C)N1C(=O)N(c2cccc(C(F)(F)F)c2)CSC1=NC(C)(C)C` [Compound 270], in assay [1], the mortality at 400 ppm stood at 60%. The compound also gave a mortality at 1000 ppm in assay [2] of 70%. The compound also yielded a mortality at 10 ppm in assay [3] of 100%.
As for `CCC(C)N=C1SCN(c2ccccc2Cl)C(=O)N1C(C)CC` (stereo not drawn) [Compound 248], the mortality at 400 ppm in assay [1] and in assay [4] was 100% each time. In assay [2], the mortality at 1000 ppm turned out to be 100%. The same compound gave a mortality at 10 ppm in assay [3] of 90%.
In assay [1], `Cc1ccccc1N1CSC(=NC(C)C)N(C(C)C)C1=O` [Compound 301, 2-Isopropylimino-3-isopropyl-5-(o-tolyl)-tetrahydro-1,3,5-thiadiazin-4-one] came in with a mortality at 400 ppm of 100%. The mortality at 1000 ppm in assay [2] came to 100%. The compound also had a mortality at 10 ppm in assay [3] of 90%.
Compound `C=CCN1C(=O)N(c2ccc(C)cc2)CSC1=NC(C)C` [Compound 315] showed a mortality at 400 ppm in assay [1] of 100%. The same compound registered a mortality at 1000 ppm in assay [2] of 100%. This compound gave a mortality at 10 ppm in assay [3] of 100%.
Compound `CCOc1ccc(N2CSC(=NC(C)(C)C)N(C(C)C)C2=O)cc1` [Compound 367] yielded a mortality at 400 ppm in assay [1] of 80%. For the same compound, in assay [2], the mortality at 1000 ppm was 100%.
The like results for `CCC(C)N1C(=O)N(c2ccc(Cl)cc2Cl)CSC1=NC(C)(C)C` (stereo not drawn) [Compound 401] were, in that order, 100% and 70%.
With `CCC(C)N1C(=O)N(c2cccc(C(F)(F)F)c2)CSC1=NC(C)(C)C` (stereo not drawn) [Compound 274], the mortality at 400 ppm in assay [1] stood at 100%. The compound further gave a mortality at 1000 ppm in assay [2] of 100%. Moreover, in assay [3], the mortality at 10 ppm worked out at 100%.
As to `CC(C)N1C(=O)N(c2ccccc2Cl)CSC1=NC(C)(C)CC(C)(C)C` [Compound 247], in assay [1], the mortality at 400 ppm was 90%. The mortality at 1000 ppm in assay [2] was 70%. For the same compound, the mortality at 10 ppm in assay [3] stood at 100%.
For `C=CCN=C1SCN(c2ccc(F)cc2)C(=O)N1C` [Compound 289], in assay [1], the mortality at 400 ppm stood at 100%. The same compound gave a mortality at 1000 ppm in assay [2] of 100%.
Compound `CC(C)N=C1SCN(c2ccccc2Cl)C(=O)N1Cc1ccco1` [Compound 255] had a mortality at 400 ppm in assay [1] of 100%. For the same compound, the mortality at 1000 ppm in assay [2] was determined as 100%.
For the compound `CC(C)N=C1SCN(c2cc(Cl)cc(Cl)c2)C(=O)N1C(C)C` [Compound 406], the mortality at 400 ppm in assay [1] was found to be 80%. In assay [2], this compound gave a mortality at 1000 ppm of 60%.
The like results for `Cc1ccccc1N1CSC(=NC2CCCCC2)N(C(C)C)C1=O` [Compound 305] were, in that order, 95% and 70%.
In turn, `CC(C)N=C1SCN(c2cccc(C(F)(F)F)c2)C(=O)N1C` [Compound 259] returned a mortality at 400 ppm in assay [1] of 60%. Also, the mortality at 1000 ppm in assay [2] was found to be 100%. This compound displayed a mortality at 10 ppm in assay [3] of 100%.
For `C=CCN1C(=O)N(c2ccc(Cl)c(Cl)c2)CSC1=NC(C)C` [Compound 421], the mortality at 400 ppm in assay [1] was determined as 60%. Moreover, the mortality at 1000 ppm in assay [2] is 70%.
For `CCN1C(=O)N(c2cccc(C)c2C)CSC1=NC1CCCCC1` [Compound 382, 2-cyclohexylimino-3-ethyl-5-(2,3-dimethylphenyl)tetrahydro-1,3,5-thiadiazin-4-one] the same measures were 80% and 100%.
`Cc1ccccc1N1CSC(=NC2CCCCC2)N(C2CCCCC2)C1=O` [Compound 307, 2-cyclohexylimino-3-cyclohexyl-5-(o-tolyl)-tetrahydro-1,3,5-thiadiazin-4-one] had a mortality at 400 ppm in assay [1] of 70%. Besides, in assay [2], the mortality at 1000 ppm came out at 70%. This compound came in with a mortality at 10 ppm in assay [3] of 100%.
Take `CCN1C(=O)N(c2ccccc2Cl)CSC1=NC(C)(C)C` [Compound 241]: the mortality at 400 ppm in assay [1] came out at 100%. The mortality at 1000 ppm in assay [2] was 70%.
For `CC(C)N=C1SCN(c2ccc(OC(C)C)cc2)C(=O)N1C(C)C` [Compound 372, 2-isopropylimino-3-isopropyl-5-(p-isopropoxyphenyl)-tetrahydro-1,3,5-thiadiazin-4-one] the same measures were 60% and 100%.
Regarding `Cc1ccc(N2CSC(=NCc3ccccc3)N(Cc3ccccc3)C2=O)cc1` [Compound 321, 2-Benzylimino-3-benzyl-5-(p-tolyl)-tetrahydro-1,3,5-thiadiazin-4-one], in assay [1], the mortality at 400 ppm came to 85%. This compound also returned a mortality at 1000 ppm in assay [2] of 70%. The compound also had a mortality at 10 ppm in assay [3] of 70%.
The compound `Cc1ccc(N2CSC(=NC(C)C)N(C)C2=O)c(C)c1` [Compound 377, 2-Isopropylimino-3-methyl-5-(2,4-dimethyl-phenyl)-tetrahydro-1,3,5-thiadiazin-4-one] showed a mortality at 400 ppm in assay [1] of 100%. The compound also came in with a mortality at 1000 ppm in assay [2] of 100%.
As to `C=CCN1C(=O)N(c2ccc(OC)cc2)CSC1=NC(C)C` [Compound 350], the mortality at 400 ppm in assay [1] came to 100%. In assay [2], the mortality at 1000 ppm came to 100%.

The values are drawn from patent US4159328A, “Tetrahydro-1,3,5-thiadiazin-4-one derivative” (Nihon Nohyaku Co., Ltd., priority 1977, dated 1979).
